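Following 48 hours of exposure in 96-well plates, responses at five concentrations were used to interpolate endpoints linearly. The concentration for 50% growth inhibition is given as GI50.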 Active and inactive are the calls of the source. Rule as the data show it: active = GI50 up to about 1.1 µM and inactive = higher.
Assays:
Experiment in all cases: growth of human tumour cells (NCI), 48 h
HCC 2998 = system: HCC 2998
OVCAR-8 = system: OVCAR-8
SF-268 = system: SF-268
NCI-H226 = system: NCI-H226
IGROV-1 = system: IGROV-1
PC-3 = system: PC-3
NCI-H460 = system: NCI-H460
LOX IMVI = system: LOX IMVI
ACHN = system: ACHN
RXF 393 = system: RXF 393
Hs-578T = system: Hs-578T
NCI/ADR-RES = system: NCI/ADR-RES
OVCAR-3 = system: OVCAR-3
SW-620 = system: SW-620
SF-539 = system: SF-539
CCRF-CEM = system: CCRF-CEM
SF-295 = system: SF-295
NCI-H522 = system: NCI-H522
HCT-15 = system: HCT-15
DU-145 = system: DU-145
EKVX = system: EKVX
OVCAR-4 = system: OVCAR-4
A549 = system: A549
SNB-75 = system: SNB-75
COLO 205 = system: COLO 205
HCT-116 = system: HCT-116
RPMI-8226 = system: RPMI-8226
OVCAR-5 = system: OVCAR-5
MDA-MB-435 = system: MDA-MB-435
SK-MEL-5 = system: SK-MEL-5
T47D = system: T47D
NCI-H23 = system: NCI-H23
KM12 = system: KM12
HL-60 = system: HL-60
SR = system: SR
M14 = system: M14
SK-OV-3 = system: SK-OV-3
UACC-257 = system: UACC-257
SN12C = system: SN12C
A498 = system: A498
HOP-62 = system: HOP-62
MDA-N = system: MDA-N
Malme-3M = system: Malme-3M
MDA-MB-231 = system: MDA-MB-231
MOLT-4 = system: MOLT-4
HT-29 = system: HT-29
SNB-19 = system: SNB-19
UACC-62 = system: UACC-62
U-251 = system: U-251
MCF7 = system: MCF7
BT-549 = system: BT-549
TK-10 = system: TK-10
SK-MEL-2 = system: SK-MEL-2
UO-31 = system: UO-31
786-0 = system: 786-0
SK-MEL-28 = system: SK-MEL-28
HOP-92 = system: HOP-92
K562 = system: K562
CAKI-1 = system: CAKI-1

Measured: GI50

O=S(=O)(Cc1nc2ccccc2s1)c1nc2ccccc2s1
inactive: HCC 2998 16.4 µM | OVCAR-8 19.4 µM | SF-268 15.6 µM | NCI-H226 26.5 µM | IGROV-1 18.7 µM | PC-3 17 µM | NCI-H460 38 µM | LOX IMVI 10 µM | ACHN 16.3 µM | RXF 393 22.5 µM | Hs-578T 19.9 µM | NCI/ADR-RES 43.2 µM | OVCAR-3 14.4 µM | SW-620 17.2 µM | SF-539 21.2 µM | CCRF-CEM 5.5 µM | SF-295 26.2 µM | NCI-H522 15.5 µM | DU-145 17.9 µM | EKVX 18.5 µM | OVCAR-4 16.9 µM | A549 29.3 µM | SNB-75 18.3 µM | COLO 205 17.9 µM | HCT-116 13.9 µM | RPMI-8226 16 µM | OVCAR-5 20 µM | MDA-MB-435 15.2 µM | SK-MEL-5 12.9 µM | T47D 21.3 µM | NCI-H23 15.6 µM | KM12 18.2 µM | HL-60 8.11 µM | SR 4.72 µM | M14 13 µM | SK-OV-3 37 µM | UACC-257 15.8 µM | SN12C 16.8 µM | A498 19.2 µM | HOP-62 49.3 µM | MDA-N 15.5 µM | Malme-3M 11.3 µM | MDA-MB-231 17.1 µM | MOLT-4 17.6 µM | HT-29 18.2 µM | SNB-19 21.5 µM | UACC-62 16 µM | U-251 18.5 µM | MCF7 18.7 µM | BT-549 16.5 µM | TK-10 20 µM | SK-MEL-2 17.4 µM | UO-31 16.7 µM | 786-0 17.4 µM | SK-MEL-28 15.6 µM | HOP-92 12.9 µM | K562 12.6 µM
16.3 µM: HCT-15

COC(=O)[C@@H]1C[C@]2(Br)c3ccccc3N(S(=O)(=O)c3ccccc3)[C@@H]2N1C(=O)OC
active: UACC-257 0.0285 µM
inactive: HCC 2998 84.3 µM | OVCAR-8 > 100 µM | SF-268 > 100 µM | NCI-H226 85.7 µM | IGROV-1 > 100 µM | PC-3 > 100 µM | NCI-H460 > 100 µM | ACHN > 100 µM | RXF 393 23 µM | Hs-578T 83.9 µM | NCI/ADR-RES > 100 µM | OVCAR-3 > 100 µM | SW-620 > 100 µM | SF-539 > 100 µM | CCRF-CEM > 100 µM | NCI-H522 > 100 µM | DU-145 43.7 µM | EKVX 74.1 µM | OVCAR-4 73.8 µM | A549 > 100 µM | SNB-75 66.8 µM | HCT-116 > 100 µM | RPMI-8226 93.1 µM | OVCAR-5 51.3 µM | CAKI-1 59.8 µM | MDA-MB-435 > 100 µM | SK-MEL-5 > 100 µM | T47D > 100 µM | NCI-H23 37.3 µM | KM12 > 100 µM | HL-60 > 100 µM | SR > 100 µM | SK-OV-3 > 100 µM | SN12C > 100 µM | A498 59.2 µM | HOP-62 > 100 µM | MDA-N > 100 µM | Malme-3M > 100 µM | MDA-MB-231 > 100 µM | MOLT-4 > 100 µM | HT-29 > 100 µM | SNB-19 > 100 µM | UACC-62 62.1 µM | U-251 > 100 µM | MCF7 > 100 µM | BT-549 > 100 µM | TK-10 > 100 µM | SK-MEL-2 74.5 µM | UO-31 > 100 µM | 786-0 > 100 µM | SK-MEL-28 > 100 µM | HOP-92 > 100 µM | K562 > 100 µM
67.3 µM: HCT-15

Source: ChEMBL document CHEMBL1201862, “PubChem BioAssay data set” (2004)
